Test results published in patent US12702691B2, “Extract of an herbal composition as antimicrobial and/or antibiofilm agent” (ALPHANOSOS S.A.S., priority 2016, dated 2026).

Assays:
B-A21 = experiment: Planktonic growth with extract and antibiotic relative to growth without both (Example 14); type: cell-based
Description: (§1) Starting from the herbal composition, the corresponding water extracts (or processed samples) was prepared according to the previously described Method B using 2.06 g of the above herbal composition with 40 mL water with 100 g/L sucrose for water extraction and including the decantation step before filtration. In an independent water extract preparation without sucrose, it has been measured that 2.06 g/40 mL of herbal composition corresponds to 14.5 g/L as deduced from the weight of the lyophilized dry herbal extract.
(§2) In Example 14 we calculate the growth of the bacteria in presence of antibiotic and/or herbal mix relative to the growth in the absence of both antibiotic and herbal mix extract.

B-A17 = experiment: as above; type: cell-based
Description: as §1, §2

[1] = M[20C]-576 0 μg/mL, antibiotic 3.91 μg/mL
[2] = M[20C]-576 0 μg/mL, antibiotic 7.81 μg/mL
[3] = M[20C]-576 0 μg/mL, antibiotic 15.63 μg/mL
[4] = M[20C]-576 0 μg/mL, antibiotic 31.25 μg/mL
[5] = M[20C]-576 0 μg/mL, antibiotic 62.50 μg/mL
[6] = M[20C]-576 0 μg/mL, antibiotic 125 μg/mL
[7] = M[20C]-576 0 μg/mL, antibiotic 250 μg/mL
[8] = M[20C]-576 0 μg/mL, antibiotic 500 μg/mL
[9] = M[20C]-576 0 μg/mL, antibiotic 1000 μg/mL
[10] = M[20C]-576 0 μg/mL, antibiotic 2000 μg/mL
[11] = M[20C]-576 0 μg/mL, antibiotic 4000 μg/mL
[12] = M[20C]-576 90.6 μg/mL, antibiotic 3.91 μg/mL
[13] = M[20C]-576 90.6 μg/mL, antibiotic 7.81 μg/mL
[14] = M[20C]-576 90.6 μg/mL, antibiotic 15.63 μg/mL
[15] = M[20C]-576 90.6 μg/mL, antibiotic 31.25 μg/mL
[16] = M[20C]-576 90.6 μg/mL, antibiotic 62.50 μg/mL
[17] = M[20C]-576 90.6 μg/mL, antibiotic 125 μg/mL
[18] = M[20C]-576 90.6 μg/mL, antibiotic 250 μg/mL
[19] = M[20C]-576 90.6 μg/mL, antibiotic 500 μg/mL
[20] = M[20C]-576 90.6 μg/mL, antibiotic 1000 μg/mL
[21] = M[20C]-576 90.6 μg/mL, antibiotic 2000 μg/mL
[22] = M[20C]-576 90.6 μg/mL, antibiotic 4000 μg/mL
[23] = M[20C]-576 181.3 μg/mL, antibiotic 3.91 μg/mL
[24] = M[20C]-576 181.3 μg/mL, antibiotic 7.81 μg/mL
[25] = M[20C]-576 181.3 μg/mL, antibiotic 15.63 μg/mL
[26] = M[20C]-576 181.3 μg/mL, antibiotic 31.25 μg/mL
[27] = M[20C]-576 181.3 μg/mL, antibiotic 62.50 μg/mL
[28] = M[20C]-576 181.3 μg/mL, antibiotic 125 μg/mL
[29] = M[20C]-576 181.3 μg/mL, antibiotic 250 μg/mL
[30] = M[20C]-576 181.3 μg/mL, antibiotic 500 μg/mL
[31] = M[20C]-576 181.3 μg/mL, antibiotic 1000 μg/mL
[32] = M[20C]-576 181.3 μg/mL, antibiotic 2000 μg/mL
[33] = M[20C]-576 181.3 μg/mL, antibiotic 4000 μg/mL

Penicillin
planktonic growth relative to the growth in the absence of both extract and antibiotic (B-A21; [1]): 135% | planktonic growth relative to the growth in the absence of both extract and antibiotic (B-A21; [2]): 116% | planktonic growth relative to the growth in the absence of both extract and antibiotic (B-A21; [3]): 115% | planktonic growth relative to the growth in the absence of both extract and antibiotic (B-A21; [4]): 113% | planktonic growth relative to the growth in the absence of both extract and antibiotic (B-A21; [5]): 108% | planktonic growth relative to the growth in the absence of both extract and antibiotic (B-A21; [6]): 106% | planktonic growth relative to the growth in the absence of both extract and antibiotic (B-A21; [7]): 101% | planktonic growth relative to the growth in the absence of both extract and antibiotic (B-A21; [8]): 0% | planktonic growth relative to the growth in the absence of both extract and antibiotic (B-A21; [9]): 0% | planktonic growth relative to the growth in the absence of both extract and antibiotic (B-A21; [10]): 0% | planktonic growth relative to the growth in the absence of both extract and antibiotic (B-A21; [11]): 0% | planktonic growth relative to the growth in the absence of both extract and antibiotic (B-A21; [12]): 104% | planktonic growth relative to the growth in the absence of both extract and antibiotic (B-A21; [13]): 83% | planktonic growth relative to the growth in the absence of both extract and antibiotic (B-A21; [14]): 83% | planktonic growth relative to the growth in the absence of both extract and antibiotic (B-A21; [15]): 84% | planktonic growth relative to the growth in the absence of both extract and antibiotic (B-A21; [16]): 80% | planktonic growth relative to the growth in the absence of both extract and antibiotic (B-A21; [17]): 74% | planktonic growth relative to the growth in the absence of both extract and antibiotic (B-A21; [18]): 26% | planktonic growth relative to the growth in the absence of both extract and antibiotic (B-A21; [19]): 0% | planktonic growth relative to the growth in the absence of both extract and antibiotic (B-A21; [20]): 0% | planktonic growth relative to the growth in the absence of both extract and antibiotic (B-A21; [21]): 0% | planktonic growth relative to the growth in the absence of both extract and antibiotic (B-A21; [22]): 0% | planktonic growth relative to the growth in the absence of both extract and antibiotic (B-A21; [23]): 62% | planktonic growth relative to the growth in the absence of both extract and antibiotic (B-A21; [24]): 43% | planktonic growth relative to the growth in the absence of both extract and antibiotic (B-A21; [25]): 70% | planktonic growth relative to the growth in the absence of both extract and antibiotic (B-A21; [26]): 61% | planktonic growth relative to the growth in the absence of both extract and antibiotic (B-A21; [27]): 60% | planktonic growth relative to the growth in the absence of both extract and antibiotic (B-A21; [28]): 45% | planktonic growth relative to the growth in the absence of both extract and antibiotic (B-A21; [29]): −3% | planktonic growth relative to the growth in the absence of both extract and antibiotic (B-A21; [30]): −3% | planktonic growth relative to the growth in the absence of both extract and antibiotic (B-A21; [31]): −3% | planktonic growth relative to the growth in the absence of both extract and antibiotic (B-A21; [32]): −3% | planktonic growth relative to the growth in the absence of both extract and antibiotic (B-A21; [33]): −3% | planktonic growth relative to the growth in the absence of both extract and antibiotic (B-A17; [1]): 137% | planktonic growth relative to the growth in the absence of both extract and antibiotic (B-A17; [2]): 138% | planktonic growth relative to the growth in the absence of both extract and antibiotic (B-A17; [3]): 3% | planktonic growth relative to the growth in the absence of both extract and antibiotic (B-A17; [4]): 1% | planktonic growth relative to the growth in the absence of both extract and antibiotic (B-A17; [5]): 0% | planktonic growth relative to the growth in the absence of both extract and antibiotic (B-A17; [6]): −1% | planktonic growth relative to the growth in the absence of both extract and antibiotic (B-A17; [7]): 0% | planktonic growth relative to the growth in the absence of both extract and antibiotic (B-A17; [8]): 0% | planktonic growth relative to the growth in the absence of both extract and antibiotic (B-A17; [9]): 0% | planktonic growth relative to the growth in the absence of both extract and antibiotic (B-A17; [10]): 0% | planktonic growth relative to the growth in the absence of both extract and antibiotic (B-A17; [11]): 0% | planktonic growth relative to the growth in the absence of both extract and antibiotic (B-A17; [12]): 39% | planktonic growth relative to the growth in the absence of both extract and antibiotic (B-A17; [13]): 25% | planktonic growth relative to the growth in the absence of both extract and antibiotic (B-A17; [14]): 1% | planktonic growth relative to the growth in the absence of both extract and antibiotic (B-A17; [15]): 0% | planktonic growth relative to the growth in the absence of both extract and antibiotic (B-A17; [16]): 0% | planktonic growth relative to the growth in the absence of both extract and antibiotic (B-A17; [17]): 0% | planktonic growth relative to the growth in the absence of both extract and antibiotic (B-A17; [18]): 0% | planktonic growth relative to the growth in the absence of both extract and antibiotic (B-A17; [19]): 0% | planktonic growth relative to the growth in the absence of both extract and antibiotic (B-A17; [20]): 0% | planktonic growth relative to the growth in the absence of both extract and antibiotic (B-A17; [21]): 0% | planktonic growth relative to the growth in the absence of both extract and antibiotic (B-A17; [22]): 0% | planktonic growth relative to the growth in the absence of both extract and antibiotic (B-A17; [23]): 23% | planktonic growth relative to the growth in the absence of both extract and antibiotic (B-A17; [24]): 5% | planktonic growth relative to the growth in the absence of both extract and antibiotic (B-A17; [25]): −3% | planktonic growth relative to the growth in the absence of both extract and antibiotic (B-A17; [26]): −3% | planktonic growth relative to the growth in the absence of both extract and antibiotic (B-A17; [27]): −3% | planktonic growth relative to the growth in the absence of both extract and antibiotic (B-A17; [28]): −3% | planktonic growth relative to the growth in the absence of both extract and antibiotic (B-A17; [29]): −2% | planktonic growth relative to the growth in the absence of both extract and antibiotic (B-A17; [30]): −3% | planktonic growth relative to the growth in the absence of both extract and antibiotic (B-A17; [31]): −4% | planktonic growth relative to the growth in the absence of both extract and antibiotic (B-A17; [32]): −4% | planktonic growth relative to the growth in the absence of both extract and antibiotic (B-A17; [33]): −2%
